Earlier results as cited in patent US20150289553A1, “METHOD OF DEVELOPING SAFE AND EFFECTIVE DIETARY SUPPLEMENTS” (priority 2014, published 2015).
Read-outs that look alike come from different tables or passages of the source.

Key:
[1] = for Clinically Effective Dosage Range: daily dosage, adults (18+ yrs.); for Dataset 2 Clinical Efficacy: Table 5, multivitamin/mineral for adult U.S. women
[2] = high intake of supplemental calcium; men
[3] = calcium supplements; almost 24,000 participants
[4] = not given; remark: listed apart in the source
[5] = 600 IU every other day; 39,876 women
[6] = 400 IU/d; 19 trials, 135,967 subjects
[7] = 400 IU every other day for 8 years; 14,641 men
[8] = adults (18+ yrs.), derived from published literature and regulatory files
[9] = Table 5, multivitamin/mineral for adult U.S. women

## CC1=CCCC(C)(C)C1/C=C/C(C)=C/C=C/C(C)=C/C=C/C=C(C)/C=C/C=C(C)/C=C/C1=C(C)CCCC1(C)C (stereo not drawn) [Alpha-Carotene]
[1]
  Clinically Effective Dosage Range: 0.01 to 5 mg
[8]
  Upper Limits, Other Nutrients: 8.3 mg

## CC/C=C\C/C=C\C/C=C\CCCCCCCC(=O)O [Alpha-Linolenic Acid]
In vivo
  Upper Limits, Other Nutrients: 25000 mg

## CC1=C(/C=C/C(C)=C/C=C/C(C)=C/C=C/C=C(C)/C=C/C=C(C)/C=C/C2=C(C)C(=O)[C@@H](O)CC2(C)C)C(C)(C)C[C@H](O)C1=O [Astaxanthin]
[1]
  Clinically Effective Dosage Range: 4 to 100 mg
In vivo
  Upper Limits, Other Nutrients: 5.3 mg

## CC1=C(/C=C/C(C)=C/C=C/C(C)=C/C=C/C=C(C)/C=C/C=C(C)/C=C/C2=C(C)CCCC2(C)C)C(C)(C)CCC1 [Beta-Carotene]
[1]
  Clinically Effective Dosage Range: 1 to 180 mg
Adults (18+ yrs.), non-smokers
  Upper Limits, CRN-listed Nutrients: 25 mg

## O=C(O)CCCC[C@@H]1SC[C@@H]2NC(=O)N[C@@H]21 [Biotin]
[1]
  Dataset 2 Clinical Efficacy: 0.003 to 15 mg
  Clinically Effective Dosage Range: 3-15,000 mcg
[9]
  Dataset 1 Upper Limits: 2.5 mg
Adults (18+ yrs.)
  Upper Limits, CRN-listed Nutrients: 2,500 mcg

## [B] [Boron]
[1]
  Clinically Effective Dosage Range: 0.2 to 11.6 mg
In vivo
  Upper Limits, CRN-listed Nutrients: 6 mg

## [Ca+2] [Calcium]
[1]
  Dataset 2 Clinical Efficacy: 130 to 2000 mg
  Clinically Effective Dosage Range: 130-2,000 mg
[2]
  risk of cardiovascular disease death: associated with an excess risk of cardiovascular disease death
[3]
  risk of myocardial infarction: raised the risk of myocardial infarction
[9]
  Dataset 1 Upper Limits: 1500 mg
Adults (18+ yrs.)
  Upper Limits, CRN-listed Nutrients: 1,500 mg

## C[N+](C)(C)CCO [Choline]
[8]
  Upper Limits, Other Nutrients: 3,500 mg

## [Cr] [Chromium]
[1]
  Dataset 2 Clinical Efficacy: 0.0035 to 1 mg
  Clinically Effective Dosage Range: 3.5-1,000 mcg
[9]
  Dataset 1 Upper Limits: 1 mg
Adults (18+ yrs.)
  Upper Limits, CRN-listed Nutrients: 1,000 mcg

## [Cu] [Copper]
[1]
  Dataset 2 Clinical Efficacy: 0.09 to 8 mg
  Clinically Effective Dosage Range: 0.09 to 8 mg
In vivo
  Dataset 1 Upper Limits: 9 mg
  Upper Limits, CRN-listed Nutrients: 9 mg

## Nc1nc2ncc(CNc3ccc(C(=O)N[C@@H](CCC(=O)O)C(=O)O)cc3)nc2c(=O)[nH]1 [Folic Acid]
[1]
  Dataset 2 Clinical Efficacy: 0.04 to 5 mg
  Clinically Effective Dosage Range: 40-5,000 mcg
[4]; folic acid in supplements versus folic acid in foods (folates)
  bioavailability: higher bioavailability

## [Fe] [Iron]
[1]
  Dataset 2 Clinical Efficacy: 125 to 2000 mg
  Clinically Effective Dosage Range: 1.8 to 120 mg
In vivo
  Dataset 1 Upper Limits: 60 mg
  Upper Limits, CRN-listed Nutrients: 60 mg

## CC1=C[C@H](O)CC(C)(C)[C@H]1/C=C/C(C)=C/C=C/C(C)=C/C=C/C=C(C)/C=C/C=C(C)/C=C/C1=C(C)C[C@@H](O)CC1(C)C [Lutein]
[1]
  Dataset 2 Clinical Efficacy: 0.1 to 20 mg
  Clinically Effective Dosage Range: 0.1 to 20 mg
In vivo
  Dataset 1 Upper Limits: 17.6 mg
  Upper Limits, Other Nutrients: 17.6 mg

## CC(C)=CCC/C(C)=C/C=C/C(C)=C/C=C/C(C)=C/C=C/C=C(C)/C=C/C=C(C)/C=C/C=C(\C)CCC=C(C)C [Lycopene]
[1]
  Clinically Effective Dosage Range: 0.2 to 30 mg
[8]
  Upper Limits, Other Nutrients: 11.3 mg

## [Mg+2] [Magnesium]
[1]
  Dataset 2 Clinical Efficacy: 42 to 1200 mg
  Clinically Effective Dosage Range: 42-1,200 mg
[9]
  Dataset 1 Upper Limits: 400 mg
Adults (18+ yrs.)
  Upper Limits, CRN-listed Nutrients: 400 mg

## [Mn+2] [Manganese]
[1]
  Dataset 2 Clinical Efficacy: 0.23 to 30 mg
  Clinically Effective Dosage Range: 0.23 to 30 mg
[9]
  Dataset 1 Upper Limits: 10 mg
Adults (18+ yrs.)
  Upper Limits, CRN-listed Nutrients: 10 mg

## [Mo] [Molybdenum]
[1]
  Clinically Effective Dosage Range: 0.0045 to 0.467 mg
In vivo
  Upper Limits, CRN-listed Nutrients: 0.35 mg

## NC(=O)c1cccnc1 [Nicotinamide]
[1]
  Dataset 2 Clinical Efficacy: 1.6 to 3000 mg
  Clinically Effective Dosage Range: 1.6-3,000 mg
[9]
  Dataset 1 Upper Limits: 1500 mg
Adults (18+ yrs.)
  Upper Limits, CRN-listed Nutrients: 1,500 mg

## O=C(O)c1cccnc1 [Nicotinic Acid]
[1]
  Clinically Effective Dosage Range: 1.6-3,000 mg
Adults (18+ yrs.)
  Upper Limits, CRN-listed Nutrients: 250 mg

## [P] [Phosphorus]
[1]
  Clinically Effective Dosage Range: 125-2,000 mg
Adults (18+ yrs.)
  Upper Limits, CRN-listed Nutrients: 1,500 mg

## [K+] [Potassium]
[1]
  Clinically Effective Dosage Range: 470-5,000 mg
Adults (18+ yrs.)
  Upper Limits, CRN-listed Nutrients: 1,500 mg

## [Se] [Selenium]
[1]
  Dataset 2 Clinical Efficacy: 5.5-200^ mcg
  Clinically Effective Dosage Range: 0.0055 to 0.2 mg
In vivo
  Dataset 1 Upper Limits: 0.2 mg
  Upper Limits, CRN-listed Nutrients: 0.2 mg

## CC1=C(/C=C/C(C)=C/C=C/C(C)=C/CO)C(C)(C)CCC1 [Vitamin A (retinol and its esters), retinol]
[1]
  Dataset 2 Clinical Efficacy: 0.09 to 3.3 mg
  Clinically Effective Dosage Range: 90-3,300 mcg
In vivo
  Dataset 1 Upper Limits: 1.5 mg
  Upper Limits, CRN-listed Nutrients: 1,500 mcg

## Cc1ncc(C[n+]2csc(CCO)c2C)c(N)n1 [Vitamin B1 (thiamin), thiamin]
[1]
  Dataset 2 Clinical Efficacy: 0.12-1000^ mg
  Clinically Effective Dosage Range: 0.12-1,000 mg
[9]
  Dataset 1 Upper Limits: 100 mg
Adults (18+ yrs.)
  Upper Limits, CRN-listed Nutrients: 100 mg

## Cc1ncc(CO)c(CO)c1O [Vitamin B6 (pyridoxine), pyridoxine]
[1]
  Dataset 2 Clinical Efficacy: 0.17 to 200 mg
  Clinically Effective Dosage Range: 0.17 to 200 mg
[9]
  Dataset 1 Upper Limits: 100 mg
Adults (18+ yrs.)
  Upper Limits, CRN-listed Nutrients: 100 mg

## O=C1O[C@H]([C@@H](O)CO)C(O)=C1O [Vitamin C, ascorbic acid]
[1]
  Dataset 2 Clinical Efficacy: 9 to 10000 mg
  Clinically Effective Dosage Range: 9-10,000 mg

## C=C1CC[C@H](O)C/C1=C/C=C1\CCC[C@]2(C)[C@@H]([C@H](C)CCCC(C)C)CC[C@@H]12 [Vitamin D, cholecalciferol]
[1]
  Dataset 2 Clinical Efficacy: 0.002 to 0.25 mg
  Clinically Effective Dosage Range: 0.002 to 0.25 mg

## Cc1c(C)c2c(c(C)c1O)CC[C@@](C)(CCC[C@H](C)CCC[C@H](C)CCCC(C)C)O2 [Vitamin E, RRR-alpha-tocopherol]
[1]
  Dataset 2 Clinical Efficacy: 1.5 to 1342 mg
  Clinically Effective Dosage Range: 1.5-1,342 mg
[5]
  effects on cardiovascular health or cancer prevention: no effects
[6]
  mortality: increased mortality
[7]
  risk for cardiovascular disease: did not reduce the risk
[9]
  Dataset 1 Upper Limits: 1000 mg
Healthy US adults, Embodiment 1
  UL (Upper Limit): 1,000 mg

## CC1=C(/C=C/C(C)=C/C=C/C(C)=C/C=C/C=C(C)/C=C/C=C(C)/C=C/C2=C(C)C[C@@H](O)CC2(C)C)C(C)(C)C[C@H](O)C1 [Zeaxanthin]
[1]
  Clinically Effective Dosage Range: 0.01 to 10 mg
In vivo
  Upper Limits, Other Nutrients: 10 mg

## [O-2].[Zn+2] [Zinc]
[1]
  Dataset 2 Clinical Efficacy: 1.1 to 80 mg
  Clinically Effective Dosage Range: 1.1 to 80 mg
[9]
  Dataset 1 Upper Limits: 30 mg
Adults (18+ yrs.)
  Upper Limits, CRN-listed Nutrients: 30 mg

## [O]=[Mg] [magnesium oxide]
[4]; versus most organic magnesium salts or chelates (citrate, malate, glycinate)
  bioavailability: lower bioavailability

## Vitamin K
[1]
  Clinically Effective Dosage Range: 12-1,000 mcg
In vivo
  Upper Limits, CRN-listed Nutrients: 10 mg

## cyanocobalamin [Vitamin B12]
[1]
  Dataset 2 Clinical Efficacy: 0.24-2500^ mcg
  Clinically Effective Dosage Range: 0.24-2,500 mcg
In vivo
  Dataset 1 Upper Limits: 3 mg
  Upper Limits, CRN-listed Nutrients: 3,000 mcg
